The text below walks through data of publication PMC4669382 (mBio, 2015).

The first data set relates to S. cerevisiae Bar1.
Assay: not given
As to conditions: cited from earlier work.
Regarding pepstatin A, the “sensitivity of S. cerevisiae Bar1 to inhibitor” value was “insensitive”.

The next data set concerns Bar1(D232A). Briefly: 127 nM Bar1. As to conditions: C. albicans, 37°C, up to 1 h.
For the substance GFRLTNFGYFEPG, the not cleaved result was “no cleavage products were generated”.

A further data set relates to Bar1(D232A). The data set is described as follows: 60 nM Bar1. Particulars: C. albicans, 37°C, up to 90 min.
Consider GFRLTNFGYFEPG, for which the not cleaved result was “no detectable cleavage activity”.

A further data set relates to C. albicans Bar1. Briefly: Bar1 activity on bovine serum albumin. As to conditions: tested at high protein concentrations, data not shown. Format: biochemical, Candida albicans.
Regarding “bovine serum albumin: bovine serum albumin tested as a Bar1 substrate”, the “Bar1 activity on protein substrate” value is given as “no detectable activity”.

The next data set relates to C. albicans Bar1. The data set is described as follows: 127 nM C. albicans Bar1 in 50 µM potassium phosphate solution. As to conditions: 37°C, up to 24 h.
With AARLTNFGYFEPG, the cleaved bond entry is given as “T5-N6, 1 h”. The same measure, in the same setting: as for GAALTNFGYFEPG, the entry is “T5-N6, 1 h”; as for GFAATNFGYFEPG, “T5-N6, 1 h”; as for GFRAANFGYFEPG, “A5-N6, 1 h”. The same measure, in the same setting: the result for GFRLAAFGYFEPG reads “A5-A6, 1 h”. Still for that read-out and setting: the result for GFRLTAAGYFEPG reads “T5-A6, 1 h”; that for GFRLTNAAYFEPG, “T5-N6, 1 h”; that for GFRLTNFAAFEPG, “T5-N6, 1 h”. For GFRLTNFGAAEPG, the not cleaved result is “no products were detected”.

As to GFRLTNFGYAAPG, the not cleaved result is recorded as “no products were detected”. For GFRLTNFGYEAAG, the not cleaved entry is on record as “no products were detected”. Still for that read-out and setting: the result for GFRLTNFGYFEAA reads “no products were detected”.

Regarding GFRLTNFGYFEPG, the cleaved bond result is on record as “threonine5-asparagine6, major, 1 h”.

For the substance KFKLTNFGYFEPG, the cleaved bond result is listed as “Thr5-Asn6, 1 h”.
